16 compounds from PubChem BioAssay (NCI) can be followed below.

Holding throughout (experiment): NCI tumour cell line growth inhibition, 48 h
The test system of assay [1] is RXF-631 renal.
The test system of assay [2] is HOP-18 NSCLC.
For assay [3], the system named is MDA-MB-435.
Assay [4] relates to BT-549 breast.
For assay [5], the system named is MDA-MB-231 breast.
The test system of assay [6] is T-47D breast.
For assay [7], the system named is PC-3 prostate.
For assay [8], the system named is HS 578T breast.
The test system of assay [9] is P388 leukemia.
Assay [10] concerns SN12K1 renal.
The test system of assay [11] is P388/ADR leukemia.

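Growth conditions: 96-well plates. Treatment: test compound, 48 hours, 5 concentrations. Analysis: linear interpolation between bracketing concentrations; unreached endpoints set to highest concentration. At the GI50, growth is halved. At the TGI there is no net growth.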

For `Cc1cccc(NC(N)=S)c1`, the TGI in assay [1] was above 100 µM.
With `O=C(O)\C=C/C=C/C=C/C=C/C(=O)O`, the TGI in assay [2] is above 100 µM.
Regarding `N=C(N)SC(c1ccccc1)c1ccccc1`, the TGI in assay [3] was 26.5 µM; in assay [4] it was 37.2 µM; in assay [5], 33.5 µM; in assay [6], 22.6 µM; in [7] it was 27.3 µM; in assay [8] it was above 100 µM.
Consider `Cn1ncc2c(=O)[nH]c(-c3ccccc3)nc21`, for which the TGI in [1] is above 100 µM.
Regarding `NS(=O)(=O)c1ccc(C(=O)O)cc1`, the TGI in assay [3], in [4], in assay [5], in assay [6], in assay [7] and in assay [8] was above 100 µM in each case.
As for `COc1ccc2c(c1)C(=O)c1c-2n(CCCCl)c(=O)c2cc([N+](=O)[O-])ccc12`, the GI50 was 0.985 µM in [3], 1.56 µM in [4], 1.68 µM in assay [7] and above 68.9 µM in [8]. The TGI was 9.22 µM in [3]; above 100 µM in assay [4]; above 46 µM in [5]; above 100 µM in [6]; above 100 µM in assay [7]; above 100 µM in assay [8].
Take `CC(C)(c1ccccc1)c1ccc(Oc2ccc3c(c2)-c2nc-3nc3[nH]c(nc4nc(nc5[nH]c(n2)c2ccc(Oc6ccc(C(C)(C)c7ccccc7)cc6)cc52)-c2cc(Oc5ccc(C(C)(C)c6ccccc6)cc5)ccc2-4)c2ccc(Oc4ccc(C(C)(C)c5ccccc5)cc4)cc32)cc1`: the TGI in assay [1] was above 100 µM.
`Nc1ccc([As](=O)(O)O)cc1`: the TGI in assay [3], in assay [4], in assay [5], in [6], in assay [7] and in [8] was above 100 µM each time.
In the case of `Cc1nc2ccccc2c(=O)n1Nc1ccc(C(=O)O)cc1`, the TGI in assay [9], in assay [10], in assay [2] and in assay [11] was above 100 µM throughout.
With `COc1cc2c(cc1OCCCOc1cc3c(cc1OC)C(=O)N1CC(F)(F)C[C@H]1C=N3)N=C[C@@H]1CC(F)(F)CN1C2=O`, the GI50 in assay [3] is 1.6 µM; in assay [4], 0.727 µM; in assay [5], 1.31 µM; in assay [6] it was 0.344 µM; in assay [7], 1.28 µM; in assay [8] it was 3.13 µM. Moreover, the TGI was 4.91 µM in assay [3]; 3.12 µM in assay [4]; 6.77 µM in assay [5]; 5.12 µM in assay [6]; 9.9 µM in assay [7]; 15.3 µM in assay [8].
In the case of `O=C1CC(c2ccccc2)NCCCCN2CC(CN1)C(C(O)c1ccccc1)C2=O` (stereo unspecified), the TGI in assay [3], in assay [4], in [5], in assay [6], in assay [7] and in [8] was above 100 µM throughout.
As for `Cc1cc(N2CCCCC2)nc(NCc2cc(Nc3ccnc4cc(Cl)ccc34)ccc2F)n1`, the GI50 is 1.64 µM in assay [3]; 1.81 µM in [5]; 1.26 µM in [6]; 1.9 µM in [7]; 2.03 µM in assay [8]. The TGI is 3.14 µM in assay [3]; 3.5 µM in assay [5]; 2.99 µM in assay [6]; 4.04 µM in [7]; 4.62 µM in assay [8].
In turn, `CCc1cc(C)cc2[n+]1CC=C2C` gave a TGI in assay [2] of 9.88 µM.
With `CC1(C)CCCC2(C)C3=C(CCC12)C(=O)OC3` (stereo unspecified), the TGI in assay [3], in [4], in [5], in assay [6], in assay [7] and in assay [8] was above 100 µM each time.
With `CCCCCCCCCCCCCCC(C(=O)[O-])[n+]1ccccc1` (stereo unspecified), the TGI was above 100 µM in [3]; above 100 µM in assay [4]; above 100 µM in assay [5]; above 100 µM in assay [6]; 77.6 µM in assay [7]; above 100 µM in assay [8].
Consider `CN(C)C=O.CN(C)C=O.CN1C(C(=O)Nc2ccccn2)=C([O-])c2ccccc2S1(=O)=O.CN1C(C(=O)Nc2ccccn2)=C([O-])c2ccccc2S1(=O)=O.[Cu+2]`, for which, in [2], the GI50 was above 100 µM and the TGI is above 100 µM. In addition, in assay [1], the GI50 is 87.4 µM and the TGI was above 100 µM.
